Test system: VEGFA
Assay: VEGFA ELISA assay (IC50)
Assay type: cell-based
Conditions: 786-O cells, 24 h, VEGFA in culture supernatant by ELISA
Description: 786-O cells in the logarithmic growth phase were inoculated into a 96-well plate at a cell concentration of 65,000 cells per ml of culture liquid, 180 μL per well. The compounds were diluted to the corresponding concentrations, and 20 μL of compound solutions of various concentrations were added to the corresponding cell wells, so that the final concentrations of the compounds were 1.5 nM, 4.6 nM, 13.7 nM, 41.2 nM, 123.5 nM, 370.4 nM, 1111.1 nM, 3333.3 nM, and 10000 nM, respectively. After culturing for 24 h, the cell culture supernatant was collected and the VEGFA concentration was determined using an ELISA kit (purchased from Abeam). Finally, the reaction was terminated and the absorbance value of each well was measured at a wavelength of 450 nm using an ELISA reader. The IC50 values were calculated by GraphPadPrism. CellTiter-Glo reagent was used to measure cell viability.

[1] = Homo sapiens, 786-0, class symbols

Structure (SMILES)	IC50 [1] [nM]	IC50 (Homo sapiens, 786-0) [nM]	further results
N#Cc1cc(-n2cc(C(F)(F)F)c3c2CCC(F)(F)C3O)cc(F)c1F (stereo not shown) [Example 1, 5-(5,5-difluoro-4-hydroxyl-3-(trifluoromethyl)-4,5,6,7-tetrahydro-1H-indol-1-yl)-2,3-difluorobenzonitrile]	≤ 500		
OC1c2c(C(F)(F)F)cn(-c3ccc(F)c(CF)c3)c2CCC1(F)F (stereo not shown) [Example 2, 5,5-difluoro-1-(4-fluoro-3-(fluoromethyl)phenyl)-3-(trifluoromethyl)-4,5,6,7-tetrahydro-1H-indol-4-ol]		8.3	
N#Cc1ccc(-n2cc(C(F)(F)F)c3c2CCC(F)(F)[C@H]3O)cc1C(F)F [Example 3, (S)-4-(5,5-difluoro-4-hydroxyl-3-(trifluoromethyl)-4,5,6,7-tetrahydro-1H-indol-1-yl)-2-(difluoromethyl)benzonitrile]		3	
N#Cc1cc(-n2cc(S(=O)(=O)C(F)F)c3c2CCC(F)(F)[C@H]3O)ccc1F [Example 4, (S)-5-(3-((difluoromethyl)sulfonyl)-5,5-difluoro-4-hydroxyl-4,5,6,7-tetrahydro-1H-indol-1-yl)-2-fluorobenzonitrile]		98	
CS(=O)(=O)c1cn(-c2ccc(F)c(C(F)F)c2)c2c1[C@H](O)C(F)(F)CC2 [Example 5, (S)-1-(3-(difluoromethyl)-4-fluorophenyl)-5,5-difluoro-3-(methylsulfonyl)-4,5,6,7-tetrahydro-1H-indol-4-ol]		72	
N#Cc1cc(-n2cc(C(F)(F)C(F)(F)F)c3c2CCC(F)(F)C3O)ccc1F (stereo not shown) [Example 9, 5-(5,5-difluoro-4-hydroxyl-3-(perfluoroethyl)-4,5,6,7-tetrahydro-1H-indol-1-yl)-2-fluorobenzonitrile]		47	
N#Cc1cc(-n2cc(S(=O)(=O)C(F)(F)F)c3c2CCC(F)(F)[C@H]3O)ccc1F [Example 10, (S)-5-(5,5-difluoro-4-hydroxyl-3-((trifluoromethyl)sulfonyl)-4,5,6,7-tetrahydro-1H-indol-1-yl)-2-fluorobenzonitrile]	≤ 500		
N#CCS(=O)(=O)c1cn(-c2ccc(F)c(C(F)(F)F)c2)c2c1[C@H](O)C(F)(F)CC2 [Example 13, (S)-2-((5,5-difluoro-1-(4-fluoro-3-(trifluoromethyl)phenyl)-4-hydroxyl-4,5,6,7-tetrahydro-1H-indol-3-yl)sulfonyl)acetonitrile]	500 to 1500		
N#Cc1cc(-n2cc(C(F)(F)C(N)=O)c3c2CCC(F)(F)C3O)ccc1F (stereo not shown) [Example 15, 2-(1-(3-cyano-4-fluorophenyl)-5,5-difluoro-4-hydroxyl-4,5,6,7-tetrahydro-1H-indol-3-yl)-2,2-difluoroacetamide]	500 to 1500		
CCS(=O)(=O)c1cn(-c2ccc(F)c(C(F)(F)F)c2)c2c1[C@H](O)C(F)(F)CC2 [Example 16, (S)-3-(ethylsulfonyl)-5,5-difluoro-1-(4-fluoro-3-(trifluoromethyl)phenyl)-4,5,6,7-tetrahydro-1H-indol-4-ol]		537	
N#Cc1cc(-n2cc(C(F)(F)C#N)c3c2CCC(F)(F)C3O)ccc1F (stereo not shown) [Example 17, 5-(3-(cyanodifluoromethyl)-5,5-difluoro-4-hydroxyl-4,5,6,7-tetrahydro-1H-indol-1-yl)-2-fluorobenzonitrile]	≤ 500		
CS(=O)(=NC#N)c1cn(-c2ccc(F)c(C#N)c2)c2c1[C@H](O)C(F)(F)CC2 (stereo partly drawn) [Example 18, N—(((S)-1-(3-cyano-4-fluorophenyl)-5,5-difluoro-4-hydroxyl-4,5,6,7-tetrahydro-1H-indol-3-yl)(methyl)(oxo)-16-sulfino)cyanamide]			IC50 (class symbols): ≤ 500 nM
N#CCS(=O)(=O)c1cn(-c2ccc(F)c(C(F)F)c2)c2c1[C@H](O)C(F)(F)CC2 [Example 19, (S)-2-((1-(3-(difluoromethyl)-4-fluorophenyl)-5,5-difluoro-4-hydroxyl-4,5,6,7-tetrahydro-1H-indol-3-yl)sulfonyl)acetonitrile]	500 to 1500		
CS(=O)(=O)c1cn(-c2ccc(F)c(C(F)(F)F)c2)c2c1[C@H](O)C(F)(F)CC2 [Example 20, (S)-5,5-difluoro-1-(4-fluoro-3-(trifluoromethyl)phenyl)-3-(methylsulfonyl)-4,5,6,7-tetrahydro-1H-indol-4-ol]		39	
O=S(=O)(c1cn(-c2ccc(F)c(C(F)(F)F)c2)c2c1[C@H](O)C(F)(F)CC2)C(F)F [Example 21, (S)-3-((difluoromethyl)sulfonyl)-5,5-difluoro-1-(4-fluoro-3-(trifluoromethyl)phenyl)-4,5,6,7-tetrahydro-1H-indol-4-ol]		12	
N#Cc1cc(-n2c(F)c(S(=O)(=O)C(F)F)c3c2CCC(F)(F)[C@H]3O)ccc1F [Example 22, (S)-5-(3-((difluoromethyl)sulfonyl)-2,5,5-trifluoroether-4-hydroxyl-4,5,6,7-tetrahydro-1H-indol-1-yl)-2-fluorobenzonitrile]		86	

Structure (SMILES)	IC50 [1] [nM]	IC50 (Homo sapiens, 786-0) [nM]	further results
CS(=O)(=O)c1cn(-c2ccc(F)c(Cl)c2)c2c1C(O)C(F)(F)CC2 (stereo not shown) [Example 24, 1-(3-chloro-4-fluorophenyl)-5,5-difluoro-3-(methylsulfonyl)-4,5,6,7-tetrahydro-1H-indol-4-ol]		72	
O=S(=O)(c1cn(-c2ccc(F)c(Cl)c2)c2c1C(O)C(F)(F)CC2)C(F)F (stereo not shown) [Example 25, 1-(3-chloro-4-fluorophenyl)-3-((difluoromethyl)sulfonyl)-5,5-difluoro-4,5,6,7-tetrahydro-1H-indol-4-ol]		63	
O=S(=O)(c1cn(-c2ccc(F)c(C(F)F)c2)c2c1[C@@H](O)C(F)(F)CC2)C(F)F [Example 26, (R)-1-(3-(difluoromethyl)-4-fluorophenyl)-3-((difluoromethyl)sulfonyl)-5,5-difluoro-4,5,6,7-tetrahydro-1H-indol-4-ol]		628	
CS(=O)(=O)c1cn(-c2ccc(Cl)c(C#N)c2)c2c1[C@H](O)C(F)(F)CC2 [Example 27, (S)-2-chloro-5-(5,5-difluoro-4-hydroxyl-3-(methylsulfonyl)-4,5,6,7-tetrahydro-1H-indol-1-yl)benzonitrile]	≤ 500		
N#Cc1cc(-n2cc(S(=O)(=O)C(F)F)c3c2CCC(F)(F)[C@H]3O)ccc1Cl [Example 28, (S)-2-chloro-5-(3-((difluoromethyl)sulfonyl)-5,5-difluoro-4-hydroxyl-4,5,6,7-tetrahydro-1H-indol-1-yl)benzonitrile]		118	
CS(=O)(=O)c1cn(-c2ccc(C#N)c(C(F)F)c2)c2c1[C@H](O)C(F)(F)CC2 [Example 29, (S)-4-(5,5-difluoro-4-hydroxyl-3-(methylsulfonyl)-4,5,6,7-tetrahydro-1H-indol-1-yl)-2-(difluoromethyl)benzonitrile]		174	
O=S(=O)(CF)c1cn(-c2ccc(F)c(C(F)(F)F)c2)c2c1[C@H](O)C(F)(F)CC2 [Example 30, (S)-5,5-difluoro-1-(4-fluoro-3-(trifluoromethyl)phenyl)-3-((fluoromethyl)sulfonyl)-4,5,6,7-tetrahydro-1H-indol-4-ol]		45	
N#Cc1ccc(-n2cc(S(=O)(=O)C(F)(F)F)c3c2CCC(F)(F)[C@H]3O)cc1C(F)(F)F [Example 31, (S)-4-(5,5-difluoro-4-hydroxyl-3-((trifluoromethyl)sulfonyl)-4,5,6,7-tetrahydro-1H-indol-1-yl)-2-(trifluoromethyl)benzonitrile]		21	
N#Cc1ccc(-n2cc(S(=O)(=O)C(F)F)c3c2CCC(F)(F)[C@H]3O)cc1C(F)(F)F [Example 34, (S)-4-(3-((difluoromethyl)sulfonyl)-5,5-difluoro-4-hydroxyl-4,5,6,7-tetrahydro-1H-indol-1-yl)-2-(trifluoromethyl)benzonitrile]	≤ 500		
N#Cc1ccc(-n2cc(S(=O)(=O)CF)c3c2CCC(F)(F)[C@H]3O)cc1C(F)(F)F [Example 36, (S)-4-(5,5-difluoro-3-((fluoromethyl)sulfonyl)-4-hydroxyl-4,5,6,7-tetrahydro-1H-indol-1-yl)-2-(trifluoromethyl) benzonitrile]		108	
O=S(=O)(CF)c1cn(-c2ccc(F)c(Cl)c2)c2c1[C@H](O)C(F)(F)CC2 [Example 37, (S)-1-(3-chloro-4-fluorophenyl)-5,5-difluoro-3-((fluoromethyl)sulfonyl)-4,5,6,7-tetrahydro-1H-indol-4-ol]	≤ 500		
N#Cc1ccc(-n2cc(S(=O)(=O)C(F)F)c3c2CCC(F)(F)[C@H]3O)cc1C#N [Example 39, (S)-4-(3-((difluoromethyl)sulfonyl)-5,5-difluoro-4-hydroxyl-4,5,6,7-tetrahydro-1H-indol-1-yl)phthalonitrile]		140	
N#Cc1cc(-n2cc(S(=O)(=O)C(F)(F)F)c3c2CCC(F)(F)[C@H]3O)ccc1Cl [Example 40, (S)-2-chloro-5-(5,5-difluoro-4-hydroxyl-3-((trifluoromethyl)sulfonyl)-4,5,6,7-tetrahydro-1H-indol-1-yl)benzonitrile]	≤ 500		
N#Cc1ccc(-n2cc(C(F)(F)C(F)(F)F)c3c2CCC(F)(F)C3O)cc1C(F)F (stereo not shown) [Example 41, 4-(5,5-difluoro-4-hydroxyl-3-(perfluoroethyl)-4,5,6,7-tetrahydro-1H-indol-1-yl)-2-(difluoromethyl)benzonitrile]	≤ 500		
N#Cc1ccc(-n2cc(S(=O)(=O)C(F)(F)F)c3c2CCC(F)(F)[C@H]3O)cc1C#N [Example 42, (S)-4-(5,5-difluoro-4-hydroxyl-3-((trifluoromethyl)sulfonyl)-4,5,6,7-tetrahydro-1H-indol-1-yl)phthalonitrile]		74	
